Test results: patent publication US12558428B2, “Heterobifunctional compounds and their use in treating disease” (Halda Therapeutics OpCo, Inc., priority 2024, dated 2026)
Read-outs that look alike come from different tables or passages of the source.

Key:
Assay type in all cases: cell-based
[1] = test system: T-Rex 293 cells having increased expression of estrogen receptor alpha protein; assay: Cellular growth inhibition assay, T-Rex 293 cells, (+) doxycycline; details: T-REx-293, 72 h, 72 hours
Method in brief: (§1)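 Cells of an inducible ERα-expressing T-Rex 293 clone are seeded in charcoal-dextran FBS medium with or without 3 ng/mL doxycycline, then treated after 24 h with compound dilutions (0.5% DMSO) for 72 h. Growth inhibition is measured by CellTiter-Glo luminescence and expressed as GI50.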

[2] = test system: T-Rex 293 cells lacking increased expression of estrogen receptor alpha protein; assay: Cellular growth inhibition assay, T-Rex 293 cells, (−) doxycycline; details: T-REx-293, 72 h, 72 hours
Method in brief: as §1

[3] = test system: MCF7 cells (ATCC #HTB-22); assay: Cellular growth inhibition assay, MCF7 cells purchased from ATCC; details: Homo sapiens, MCF7, 144 h, Table 8-A; MCF7 cells purchased from ATCC; six days; CellTiter-Glo; read-out: GI50
Method in brief: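 GI50 values come from a four-parameter fit of CellTiter-Glo 2.0 luminescence after six days of compound exposure at 37° C. Seeding density depended on the source: 225 cells/well for ECACC MCF7, 1,500 for ATCC. Medium was RPMI 1640 with 10% FBS and 0.2 U/ml insulin.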

[4] = Table 7-A, T-Rex 293 cells with doxycycline (increased ERα expression), CellTiter-Glo, read-out: (+) Dox GI50
[5] = Table 7-A, T-Rex 293 cells without doxycycline (lacking increased ERα expression), CellTiter-Glo, read-out: (−) Dox GI50
[6] = T-Rex 293 cells with doxycycline-induced ERα expression, CellTiter-Glo 2.0, read-out: (+) Dox TRex ERa (GI50)
[7] = T-Rex 293 cells without doxycycline, CellTiter-Glo 2.0, read-out: (−) Dox TRex ERa (GI50)

Structure (SMILES) | GI50 [3] [nM] | GI50 [1, 4] [nM] | GI50 [2, 5] [nM] | GI50 [1, 6] [nM] | GI50 [2, 7] [nM] | GI50 ([1]; Table 7-B, T-Rex 293 cells with doxycycline (increased ERα expression), CellTiter-Glo, read-out: (+) Dox GI50) [nM] | GI50 ([2]; Table 7-B, T-Rex 293 cells without doxycycline (lacking increased ERα expression), CellTiter-Glo, read-out: (−) Dox GI50) [nM]
Cc1sc2c(c1C)C(c1ccc(N3CCN(C4CCN(CCOc5ccc([C@@H]6c7ccc(O)cc7CC[C@@H]6c6ccccc6)cc5)C4)CC3)cc1)=NC(Cc1ncco1)c1nnc(C)n1-2 (stereo partly drawn) [III-50] | < 50 | < 50 | 50 to 500 | – | – | – | –
Cc1sc2c(c1C)C(c1ccc(CC3CC4(CCN(CCOc5ccc(C(=O)c6c(-c7ccc(O)cc7)sc7cc(O)ccc67)cc5)CC4)C3)cc1)=N[C@@H](C)c1nnc(C)n1-2 [I-19, (S)-(6-hydroxy-2-(4-hydroxyphenyl)benzo[b]thiophen-3-yl)(4-(2-(2-(4-(2,3,6,9-tetramethyl-6H-thieno[3,2-f][1,2,4]triazolo[4,3-a][1,4]diazepin-4-yl)benzyl)-7-azaspiro[3.5]nonan-7-yl)ethoxy)phenyl)methanone] | < 50 | – | – | < 50 | 50 to 500 | – | –
Cn1cc(-c2cc(C(C)(C)O)ccc2Oc2ccc(CC3CC4(CCN(CCOc5ccc(C(=O)c6c(-c7ccc(O)cc7)sc7cc(O)ccc67)cc5)CC4)C3)cc2)c2cc[nH]c2c1=O [I-24, 4-(2-(4-((7-(2-(4-(6-hydroxy-2-(4-hydroxyphenyl)benzo[b]thiophene-3-carbonyl)phenoxy)ethyl)-7-azaspiro[3.5]nonan-2-yl)methyl)phenoxy) -5-(2-hydroxypropan-2-yl)phenyl)-6-methyl-1,6-dihydro-7H-pyrrolo[2,3-c]pyridin-7-one] | < 50 | – | – | 50 to 500 | 50 to 500 | – | –
CC1=C(c2c(F)cc(F)cc2F)[C@H](c2ccc(OCCN3CCC[C@]4(CCN(c5ccc(C6=N[C@@H](C)c7nnc(C)n7-c7sc(C)c(C)c76)cc5)C4)C3)cc2)Oc2ccc(O)cc21 [V-7] | 50 to 500 | < 50 | 50 to 500 | – | – | – | –
Cc1sc2c(c1C)C(c1ccc(N3CCC(O)(CN4CCN(c5ccc([C@H]6c7ccc(O)cc7CC[C@H]6c6ccc(F)cc6)cc5)CC4)CC3)cc1)=N[C@H](Cc1ncco1)c1nnc(C)n1-2 [III-207] | 500 to 2500 | > 2500 | > 2500 | – | – | – | –
Cc1sc2c(c1C)C(c1ccc(N3CCN(CC4CCN(c5ccc([C@@H]6c7ccc(O)cc7CC[C@@H]6c6ccccc6)cc5)CC4)CC3)cc1)=N[C@@H](Cc1ncco1)c1nnc(C)n1-2 [I-12, (5R,6S)-6-phenyl-5-(4-(4-((4-(4-((S)-2,3,9-trimethyl-6-(oxazol-2-ylmethyl)-6H-thieno[3,2-f][1,2,4]triazolo[4,3-a][1,4]diazepin-4-yl)phenyl)piperazin-1-yl)methyl)piperidin-1-yl)phenyl)-5,6,7,8-tetrahydronaphthalen-2-ol] | < 50 | < 50 | 500 to 2500 | – | – | – | –
Cc1sc2c(c1C)C(c1ccc(N3CCC(O)(CN4CCN(c5ccc([C@H]6c7ccc(O)cc7CC[C@H]6c6ccc(F)cc6F)cc5)CC4)CC3)cc1)=N[C@@H](Cc1ncco1)c1nnc(C)n1-2 [III-258] | 50 to 500 | 50 to 500 | 50 to 500 | – | – | – | –
Cc1sc2c(c1C)C(c1ccc(NCC3CCCCN3CCOc3ccc([C@@H]4c5ccc(O)cc5CC[C@@H]4c4ccccc4)cc3)cc1)=NC(Cc1ncco1)c1nnc(C)n1-2 (stereo partly drawn) [III-56] | 50 to 500 | 50 to 500 | 50 to 500 | – | – | – | –
CC1=C(C)C2C(c3ccc(N4CC(O)(CC5CCN(c6ccc([C@@H]7c8ccc(O)cc8CC[C@@H]7c7ccccc7)cc6)CC5)C4)cc3)=N[C@@H](Cc3ncco3)c3nnc(C)n3C2S1 (stereo partly drawn) [III-167] | < 50 | < 50 | 50 to 500 | – | – | – | –
Cc1sc2c(c1C)C(c1ccc(N3CCC(O)(CN4CCN(c5ccc([C@@H]6c7ccc(O)cc7CC[C@@H]6c6ccc(F)cc6)c(F)c5)CC4)CC3)cc1)=N[C@@H](C)c1nnc(C)n1-2 [III-248] | < 50 | < 50 | 500 to 2500 | – | – | – | –
Cc1sc2c(c1C)C(c1ccc(N3CCC(CC4(O)CCN(c5ccc([C@@H]6c7ccc(O)cc7CC[C@@H]6c6ccccc6)cc5)CC4)CC3)cc1)=N[C@@H](Cc1ncco1)c1nnc(C)n1-2 [III-164] | < 50 | < 50 | 50 to 500 | – | – | – | –
CC1=C(c2c(F)cc(F)cc2F)[C@@H](c2ccc(N3CCN(CC4CCN(c5ccc(C6=N[C@@H](C)c7nnc(C)n7-c7sc(C)c(C)c76)cc5)CC4)CC3)cc2)Oc2ccc(O)cc21 [V-22] | 50 to 500 | < 50 | 500 to 2500 | – | – | – | –
Cc1sc2c(c1C)C(c1ccc(OCCC3CCN(c4ccc(C(=O)c5c(-c6ccc(O)cc6)sc6cc(O)ccc56)cc4)CC3)cc1)=N[C@@H](Cc1ncco1)c1nnc(C)n1-2 [I-15, (S)-(6-hydroxy-2-(4-hydroxyphenyl)benzo[b]thiophen-3-yl)(4-(4-(2-(4-(2,3,9-trimethyl-6-(oxazol-2-ylmethyl)-6H-thieno[3,2-f][1,2,4]triazolo[4,3-a][1,4]diazepin-4-yl)phenoxy)ethyl)piperidin-1-yl)phenyl)methanone] | < 50 | – | – | < 50 | < 50 | – | –
CC1=C(c2c(F)cc(F)cc2F)[C@H](c2ccc(N3CCN(C(=O)C4CCN(c5ccc(C6=N[C@@H](C)c7nnc(C)n7-c7sc(C)c(C)c76)cc5)CC4)CC3)cc2)Oc2ccc(O)cc21 [V-15] | 50 to 500 | < 50 | 50 to 500 | – | – | – | –
Cc1sc2c(c1C)C(c1ccc(N3CCC(O)(CN4CCN(c5ccc([C@@H]6c7ccc(O)cc7CC[C@@H]6c6ccc(F)cc6F)cc5)CC4)CC3)cc1)=N[C@@H](Cc1ncco1)c1nnc(C)n1-2 [III-259] | < 50 | < 50 | 500 to 2500 | – | – | – | –
Cc1sc2c(c1C)C(c1ccc(N3CCN(CC4CCN(c5ccc([C@@H]6c7ccc(O)cc7CC[C@@H]6c6ccccc6)cc5)CC4)CC3)cc1)=N[C@@H](Cc1nccs1)c1nnc(C)n1-2 [III-232] | < 50 | < 50 | > 2500 | – | – | – | –
Cc1cc(N2CCC(O)(CN3CCN(c4ccc([C@H]5c6ccc(O)cc6CC[C@H]5c5ccc(F)cc5F)cc4)CC3)CC2)ccc1Oc1ccc(C(C)(C)O)cc1-c1cn(C)c(=O)c2[nH]ccc12 [V-40] | < 50 | – | – | – | – | < 50 | 500 to 2500

Continued, in another order:

GI50 [3] [nM] | Structure (SMILES) | GI50 [1, 4] [nM] | GI50 [2, 5] [nM] | GI50 [1, 6] [nM] | GI50 [2, 7] [nM] | GI50 ([1]; Table 7-B, T-Rex 293 cells with doxycycline (increased ERα expression), CellTiter-Glo, read-out: (+) Dox GI50) [nM] | GI50 ([2]; Table 7-B, T-Rex 293 cells without doxycycline (lacking increased ERα expression), CellTiter-Glo, read-out: (−) Dox GI50) [nM]
50 to 500 | Cc1sc2c(c1C)C(c1ccc(N3CCC(CN4CCN(c5ccc(C6=C(c7ccccc7)CCCc7cc(O)ccc76)cc5)CC4)CC3)cc1)=N[C@@H](C)c1nnc(C)n1-2 [IV-39] | < 50 | > 2500 | – | – | – | –
50 to 500 | Cc1sc2c(c1C)C(c1ccc(N3CC(CN4CCN(c5ccc([C@@H]6c7ccc(O)cc7CC[C@@H]6c6ccccc6)cc5)CC4)C3)cc1)=N[C@@H](C)c1nnc(C)n1-2 [III-89] | < 50 | 500 to 2500 | – | – | – | –
50 to 500 | Cc1sc2c(c1C)C(c1ccc(C3CCN(C[C@@H]4[C@H]5CN(c6ccc([C@H]7c8ccc(O)cc8CC[C@H]7c7ccccc7)cc6)C[C@@H]45)CC3)cc1)=N[C@@H](C)c1nnc(C)n1-2 [III-22] | < 50 | 500 to 2500 | – | – | – | –
50 to 500 | Cc1sc2c(c1C)C(c1ccc(N3CCC(C(=O)N4CCN(c5ccc(C6=C(c7ccc(Cl)cc7Cl)CCCc7cc(C(=O)O)ccc76)cc5)CC4)CC3)cc1)=N[C@@H](C)c1nnc(C)n1-2 [IV-7] | 50 to 500 | 500 to 2500 | – | – | – | –
< 50 | Cc1sc2c(c1C)C(c1ccc(N3CCN(CC4CCN(c5ccc(C6=C(c7ccc(Cl)cc7Cl)CCCc7cc(C(=O)O)ccc76)cc5)CC4)CC3)cc1)=N[C@@H](Cc1ncco1)c1nnc(C)n1-2 [IV-4] | 50 to 500 | 500 to 2500 | – | – | – | –
50 to 500 | Cc1sc2c(c1C)C(c1ccc(OC3CC4(CCN(c5ccc([C@@H]6c7ccc(O)cc7CC[C@@H]6c6ccccc6)cc5)CC4)C3)cc1)=N[C@@H](C)c1nnc(C)n1-2 [III-90] | 500 to 2500 | > 2500 | – | – | – | –
50 to 500 | Cc1sc2c(c1C)C(c1ccc(N3CCC(O)(CN4CCN(c5ccc([C@@H]6c7ccc(C(=O)O)cc7CC[C@@H]6c6ccc(F)cc6F)cc5)CC4)CC3)cc1)=N[C@@H](C)c1nnc(C)n1-2 [III-204] | < 50 | 500 to 2500 | – | – | – | –
50 to 500 | Cc1sc2c(c1C)C(c1ccc(C34COC(CN5CCN(c6ccc([C@@H]7c8ccc(O)cc8CC[C@@H]7c7ccccc7)cc6)CC5)(C3)C4)cc1)=N[C@@H](C)c1nnc(C)n1-2 [III-82] | 50 to 500 | 500 to 2500 | – | – | – | –
< 50 | Cc1sc2c(c1C)C(c1ccc(N3CC(CN4CCN(C(=O)C5CN(c6ccc([C@@H]7c8ccc(O)cc8CC[C@@H]7c7ccccc7)cc6)C5)CC4)C3)cc1)=N[C@@H](C)c1nnc(C)n1-2 [III-160] | < 50 | 50 to 500 | – | – | – | –
< 50 | Cc1sc2c(c1C)C(c1ccc(N3CCC(O)(CN4CCN(c5ccc(C6=C(c7cccc(Cl)c7Cl)CCCc7cc(C(=O)O)ccc76)cc5)CC4)CC3)cc1)=N[C@@H](C)c1nnc(C)n1-2 [IV-53] | < 50 | 500 to 2500 | – | – | – | –
< 50 | Cc1sc2c(c1C)C(c1ccc(C3CN(CC4CC(CN5CC(c6ccc(C7=C(c8ccccc8)CCCc8cc(C(=O)O)ccc87)cc6)C5)C4)C3)cc1)=N[C@@H](C)c1nnc(C)n1-2 (stereo partly drawn) [IV-62] | < 50 | 500 to 2500 | – | – | – | –
